Source: ChEMBL document CHEMBL4602625, “Synthesis, biological evaluation and SAR studies of ursolic acid 3β-ester derivatives as novel CETP inhibitors” (Bioorg Med Chem Lett, 2020)
pIC50: −log10 of the molar value.

Key:
[1] = target: T1, Cholesteryl ester transfer protein (Homo sapiens) (UniProt P11597); assay: Inhibition of human CETP at 10 uM relative to control
T1 sequence (whole entry): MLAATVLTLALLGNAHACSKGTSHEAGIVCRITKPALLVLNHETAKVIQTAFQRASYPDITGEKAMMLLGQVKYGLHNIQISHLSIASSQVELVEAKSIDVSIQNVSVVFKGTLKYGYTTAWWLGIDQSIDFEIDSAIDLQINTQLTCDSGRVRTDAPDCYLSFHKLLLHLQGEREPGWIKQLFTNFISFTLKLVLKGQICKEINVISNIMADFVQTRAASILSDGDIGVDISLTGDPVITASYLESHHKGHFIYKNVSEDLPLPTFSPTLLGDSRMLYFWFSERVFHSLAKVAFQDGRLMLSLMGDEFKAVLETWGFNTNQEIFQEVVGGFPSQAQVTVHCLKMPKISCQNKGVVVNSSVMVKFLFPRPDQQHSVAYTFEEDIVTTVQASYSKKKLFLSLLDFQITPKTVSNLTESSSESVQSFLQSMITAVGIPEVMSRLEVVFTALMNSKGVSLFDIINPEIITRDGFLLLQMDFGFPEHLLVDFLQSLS

[2] = target: T2, Cholesteryl ester transfer protein (Homo sapiens, UniProt P11597); assay: Inhibition of human CETP
T2 sequence (P11597 whole entry): T1 sequence (whole entry)

Row | inhibition [1] [%] | pIC50 [2] | SMILES
1 | 1.5 | – | C[C@H]1[C@H](C)CC[C@]2(C(=O)O)CC[C@]3(C)C(=CC[C@@H]4[C@@]5(C)CC[C@H](OC(=O)CC6(CC(=O)O)CCCCC6)C(C)(C)[C@@H]5CC[C@]43C)[C@H]12
2 | 88.4 | – | COc1cc(F)c(C(C)C)cc1-c1ccc(C(F)(F)F)cc1CN1C(=O)O[C@H](c2cc(C(F)(F)F)cc(C(F)(F)F)c2)[C@@H]1C
3 | 42.8 | 4.96 | C[C@H]1[C@H](C)CC[C@]2(C(=O)O)CC[C@]3(C)C(=CC[C@@H]4[C@@]5(C)CC[C@H](OC(=O)CCC(=O)O)C(C)(C)[C@@H]5CC[C@]43C)[C@H]12
4 | 11.1 | – | C[C@H]1[C@H](C)CC[C@]2(C(=O)O)CC[C@]3(C)C(=CC[C@@H]4[C@@]5(C)CC[C@H](OC(=O)CCCCCC(=O)O)C(C)(C)[C@@H]5CC[C@]43C)[C@H]12
5 | 1.1 | – | CC(CC(=O)O)CC(=O)O[C@H]1CC[C@]2(C)[C@H]3CC=C4[C@@H]5[C@@H](C)[C@H](C)CC[C@]5(C(=O)O)CC[C@@]4(C)[C@]3(C)CC[C@H]2C1(C)C (some centres not stated)
6 | – | < 4.30 | C[C@H]1[C@H](C)CC[C@]2(C(=O)O)CC[C@]3(C)C(=CC[C@@H]4[C@@]5(C)CC[C@H](O)C(C)(C)[C@@H]5CC[C@]43C)[C@H]12 [URSOLIC ACID]
7 | 23.3 | – | C[C@H]1[C@H](C)CC[C@]2(C(=O)O)CC[C@]3(C)C(=CC[C@@H]4[C@@]5(C)CC[C@H](OC(=O)CCCCC(=O)O)C(C)(C)[C@@H]5CC[C@]43C)[C@H]12
8 | 9 | – | C[C@H]1[C@H](C)CC[C@]2(C(=O)O)CC[C@]3(C)C(=CC[C@@H]4[C@@]5(C)CC[C@H](OC(=O)C6C(C(=O)O)C6(C)C)C(C)(C)[C@@H]5CC[C@]43C)[C@H]12 (some centres not stated)
9 | 61.8 | 5.48 | C[C@H]1[C@H](C)CC[C@]2(C(=O)O)CC[C@]3(C)C(=CC[C@@H]4[C@@]5(C)CC[C@H](OC(=O)c6cccc(C(=O)O)c6)C(C)(C)[C@@H]5CC[C@]43C)[C@H]12
10 | 47.9 | 5.26 | C[C@H]1[C@H](C)CC[C@]2(C(=O)O)CC[C@]3(C)C(=CC[C@@H]4[C@@]5(C)CC[C@H](OC(=O)c6ccccc6C(=O)O)C(C)(C)[C@@H]5CC[C@]43C)[C@H]12
11 | 0 | – | C[C@H]1[C@H](C)CC[C@]2(C(=O)O)CC[C@]3(C)C(=CC[C@@H]4[C@@]5(C)CC[C@H](OC(=O)CC6(CC(=O)O)CCCC6)C(C)(C)[C@@H]5CC[C@]43C)[C@H]12
12 | 22.7 | – | C[C@H]1[C@H](C)CC[C@]2(C(=O)O)CC[C@]3(C)C(=CC[C@@H]4[C@@]5(C)CC[C@H](OC(=O)c6ccccc6)C(C)(C)[C@@H]5CC[C@]43C)[C@H]12
13 | 55.1 | 5.49 | C[C@H]1[C@H](C)CC[C@]2(C(=O)O)CC[C@]3(C)C(=CC[C@@H]4[C@@]5(C)CC[C@H](OC(=O)CCCC(=O)O)C(C)(C)[C@@H]5CC[C@]43C)[C@H]12
14 | 0 | – | C[C@H]1[C@H](C)CC[C@]2(C(=O)O)CC[C@]3(C)C(=CC[C@@H]4[C@@]5(C)CC[C@H](OC(=O)CC(C)(C)CC(=O)O)C(C)(C)[C@@H]5CC[C@]43C)[C@H]12
15 | 11.2 | – | C[C@H]1[C@H](C)CC[C@]2(C(=O)O)CC[C@]3(C)C(=CC[C@@H]4[C@@]5(C)CC[C@H](OC(=O)c6cccnc6)C(C)(C)[C@@H]5CC[C@]43C)[C@H]12
16 | 24.5 | – | C[C@H]1[C@H](C)CC[C@]2(C(=O)O)CC[C@]3(C)C(=CC[C@@H]4[C@@]5(C)CC[C@H](OC(=O)c6ccc(C(=O)O)cc6)C(C)(C)[C@@H]5CC[C@]43C)[C@H]12
17 | 53.2 | 5.62 | C[C@H]1[C@H](C)CC[C@]2(C(=O)O)CC[C@]3(C)C(=CC[C@@H]4[C@@]5(C)CC[C@H](OC(=O)C6CC6C(=O)O)C(C)(C)[C@@H]5CC[C@]43C)[C@H]12 (some centres not stated)
